Test results: patent US20250154152A1, “INHIBITORS OF NAEGLERIA FOWLERI” (Wisconsin Alumni Research Foundation, priority 2023, published 2025)

Tested on: N. fowleri strain Nf69 (ATCC 30215) trophozoites
Experiment: Determination of EC50 values against Naegleria fowleri (growth inhibition, CellTiter Glo, 48 h)
Assay type: cell-based
Settings: ATCC30215, N. fowleri Nf69 trophozoites, 48 h culture, 37° C., CellTiter Glo luminescence, read-out: EC50 uM against N. fowleri
Experimental: N. fowleri strain Nf69 (ATCC 30215) trophozoites were cultured axenically. Amoeba were seeded at […] in 100 μL of the indicated medium in white TC-treated 96-well plates (Thermo Scientific Nunc Microwell 136101). Cells were seeded into Nelson's Complete Media (NCM, 0.17% liver infusion broth (BD Difco, Franklin Lakes, NJ), 0.17% glucose, 0.012% sodium chloride, 0.0136% potassium phosphate monobasic, 0.0142% sodium phosphate dibasic, 0.0004% calcium chloride, 0.0002% magnesium sulfate, 10% heat-inactivated fetal bovine serum (FBS), 1% penicillin-streptomycin) at 37° C. in 96-well tissue culture plates. Vehicle or compound at concentrations initially ranging from 20 to 0.375 μM were added to cells, followed by culture for 48 h (37° C., 5% CO2). Plates were equilibrated to rt for 15 min and CellTiter Glo reagent was added followed by orbital shaking for 2 min. After an additional incubation (rt, 10 min), luminescence was scored on a BioTek Synergy H1 microplate reader. Luminescence values were used to calculate percent cell growth inhibition (based on controls) for each concentration of compound tested. Averages of triplicates were calculated and fit to dose-response curves for the determination of EC50 values, using Prism 9.0 (GraphPad Software, San Diego, CA). […] Other controls included media alone, cells and media, and vehicle and media. For very potent compounds, concentration of reagent in the dose-response assays were reduced to provide an appropriate range for EC50 value resolution.
Compounds of the present technology were tested for growth inhibition of N. fowleri per General Procedure 13, above.

`O=c1c2cc(Cl)ccc2nc2n1CC[C@H]1NCCC[C@H]21` (racemic) [trans-6a, (±)-(4aR,13bS)-10-chloro-1,2,3,4,4a,5,6,13b-octahydro-8H-[1,6]naphthyridino[5,6-b]quinazolin-8-one] and `O=c1c2cc(Cl)c(Cl)cc2nc2n1CC[C@H]1NCCC[C@H]21` (racemic) [trans-6b, (±)-(4aR,13bS)-10,11-dichloro-1,2,3,4,4a,5,6,13b-octahydro-8H-[1,6]naphthyridino[5,6-b]quinazolin-8-one] fall in the same range of EC50: 1 to 10 µM for the first, 1 to 10 µM for the second.

First: COc1cc2nc3n(c(=O)c2cc1Cl)CC[C@H]1NCCC[C@H]31 (racemic) [trans-6c, (±)-(4aR,13bS)-10-chloro-11-methoxy-1,2,3,4,4a,5,6,13b-octahydro-8H-[1,6]naphthyridino[5,6-b]quinazolin-8-one]
Second: COc1cc2nc3n(c(=O)c2cc1Cl)CC[C@@H]1[C@@H]3CCCN1CC(C)C (racemic) [trans-7ee, (±)-(4aR,13bS)-10-chloro-4-isobutyl-11-methoxy-1,2,3,4,4a,5,6,13b-octahydro-8H-[1,6]naphthyridino[5,6-b]quinazolin-8-one]
The EC50 of the first is higher: 1 to 10 µM for the first, 0.1 to 1 µM for the second.

`CC(C)N1CCC[C@@H]2c3nc4cc(Cl)c(Cl)cc4c(=O)n3CC[C@H]21` (racemic) [trans-7a, (±)-(4aR,13bS)-10,11-dichloro-4-isopropyl-1,2,3,4,4a,5,6,13b-octahydro-8H-[1,6]naphthyridino[5,6-b]quinazolin-8-one] and `CC(C)CN1CCC[C@@H]2c3nc4cc(Cl)c(Cl)cc4c(=O)n3CC[C@H]21` (racemic) [trans-7l, (±)-(4aR,13bS)-10,11-dichloro-4-isobutyl-1,2,3,4,4a,5,6,13b-octahydro-8H-[1,6]naphthyridino[5,6-b]quinazolin-8-one] fall in the same range of EC50: 0.0001 to 0.1 µM for the first, 0.0001 to 0.1 µM for the second.

First: CC(C)NCCN1CCC[C@@H]2c3nc4cc(Cl)c(Cl)cc4c(=O)n3CC[C@H]21 (racemic) [trans-7aa, (±)-(4aR,13bS)-10,11-dichloro-4-(2-(isopropylamino)ethyl)-1,2,3,4,4a,5,6,13b-octahydro-8H-[1,6]naphthyridino[5,6-b]quinazolin-8-one]
Second: O=c1c2cc(Cl)c(Cl)cc2nc2n1CC[C@@H]1[C@@H]2CCCN1CCO (racemic) [trans-7j, (±)-(4aR,13bS)-10,11-dichloro-4-(2-hydroxyethyl)-1,2,3,4,4a,5,6,13b-octahydro-8H-[1,6]naphthyridino[5,6-b]quinazolin-8-one]
The EC50 of the first is higher: 0.1 to 1 µM for the first, 0.0001 to 0.1 µM for the second.

`O=c1c2cc(Cl)c(Cl)cc2nc2n1CC[C@@H]1[C@@H]2CCCN1CC1CCOCC1` (racemic) [trans-7b, (±)-(4aR,13bS)-10,11-dichloro-4-((tetrahydro-2H-pyran-4-yl)methyl)-1,2,3,4,4a,5,6,13b-octahydro-8H-[1,6]naphthyridino[5,6-b]quinazolin-8-one] and `O=c1c2cc(Cl)c(Cl)cc2nc2n1CC[C@@H]1[C@@H]2CCCN1CC1COC1` (racemic) [trans-7m, (±)-(4aR,13bS)-10,11-dichloro-4-(oxetan-3-ylmethyl)-1,2,3,4,4a,5,6,13b-octahydro-8H-[1,6]naphthyridino[5,6-b]quinazolin-8-one] fall in the same range of EC50: 0.0001 to 0.1 µM for the first, 0.0001 to 0.1 µM for the second.

First: O=c1c2cc(Cl)c(Cl)cc2nc2n1CC[C@@H]1[C@@H]2CCCN1Cc1cccnc1 (racemic) [trans-7bb, (±)-(4aR,13bS)-10,11-dichloro-4-(pyridin-3-ylmethyl)-1,2,3,4,4a,5,6,13b-octahydro-8H-[1,6]naphthyridino[5,6-b]quinazolin-8-one]
Second: COc1cc2nc3n(c(=O)c2cc1Cl)CC[C@@H]1[C@@H]3CCCN1Cc1cccnc1 (racemic) [trans-7ii, (±)-(4aR,13bS)-10-chloro-11-methoxy-4-(pyridin-3-ylmethyl)-1,2,3,4,4a,5,6,13b-octahydro-8H-[1,6]naphthyridino[5,6-b]quinazolin-8-one]
The EC50 of the first is lower: 0.0001 to 0.1 µM for the first, 0.1 to 1 µM for the second. The first is the more potent here.

First: CN(C)C(=O)CN1CCC[C@@H]2c3nc4cc(Cl)c(Cl)cc4c(=O)n3CC[C@H]21 (racemic) [trans-7c, (±)-2-((4aR,13bS)-10,11-dichloro-8-oxo-2,3,5,6,8,13b-hexahydro-1H-[1,6]naphthyridino[5,6-b]quinazolin-4(4aH)-yl)-N,N-dimethylacetamide]
Second: CC(=O)CN1CCC[C@@H]2c3nc4cc(Cl)c(Cl)cc4c(=O)n3CC[C@H]21 (racemic) [trans-7cc, (±)-(4aR,13bS)-10,11-dichloro-4-(2-oxopropyl)-1,2,3,4,4a,5,6,13b-octahydro-8H-[1,6]naphthyridino[5,6-b]quinazolin-8-one]
The EC50 of the first is higher: 0.1 to 1 µM for the first, 0.0001 to 0.1 µM for the second.

Compared with `CC(C)(C)C(=O)N1CCC[C@@H]2c3nc4cc(Cl)c(Cl)cc4c(=O)n3CC[C@H]21` (racemic) [trans-7d, (±)-(4aR,13bS)-10,11-dichloro-4-pivaloyl-1,2,3,4,4a,5,6,13b-octahydro-8H-[1,6]naphthyridino[5,6-b]quinazolin-8-one], `CN(C)CC(=O)N1CCC[C@@H]2c3nc4cc(Cl)c(Cl)cc4c(=O)n3CC[C@H]21` (racemic) [trans-7g, (±)-(4aR,13bS)-10,11-dichloro-4-(dimethylglycyl)-1,2,3,4,4a,5,6,13b-octahydro-8H-[1,6]naphthyridino[5,6-b]quinazolin-8-one] is lower in EC50: > 10 µM for the first, 0.1 to 1 µM for the second.

`COc1cc2nc3n(c(=O)c2cc1Cl)CC[C@@H]1[C@@H]3CCCN1CC1COC1` (racemic) [trans-7dd, (±)-(4aR,13bS)-10-chloro-11-methoxy-4-(oxetan-3-ylmethyl)-1,2,3,4,4a,5,6,13b-octahydro-8H-[1,6]naphthyridino[5,6-b]quinazolin-8-one] and `COc1cc2nc3n(c(=O)c2cc1Cl)CC[C@@H]1[C@@H]3CCCN1CC1CC1` (racemic) [trans-7gg, (±)-(4aR,13bS)-10-chloro-4-(cyclopropylmethyl)-11-methoxy-1,2,3,4,4a,5,6,13b-octahydro-8H-[1,6]naphthyridino[5,6-b]quinazolin-8-one] fall in the same range of EC50: 0.0001 to 0.1 µM for the first, 0.0001 to 0.1 µM for the second.

`O=C(C1CCOCC1)N1CCC[C@@H]2c3nc4cc(Cl)c(Cl)cc4c(=O)n3CC[C@H]21` (racemic) [trans-7e, (±)-(4aR,13bS)-10,11-dichloro-4-(tetrahydro-2H-pyran-4-carbonyl)-1,2,3,4,4a,5,6,13b-octahydro-8H-[1,6]naphthyridino[5,6-b]quinazolin-8-one] and `O=C(N1CCOCC1)N1CCC[C@@H]2c3nc4cc(Cl)c(Cl)cc4c(=O)n3CC[C@H]21` (racemic) [trans-7f, (±)-(4aR,13bS)-10,11-dichloro-4-(morpholine-4-carbonyl)-1,2,3,4,4a,5,6,13b-octahydro-8H-[1,6]naphthyridino[5,6-b]quinazolin-8-one] cannot be ordered by EC50: > 10 µM for the first, > 10 µM for the second.

Compared with `COc1cc2nc3n(c(=O)c2cc1Cl)CC[C@@H]1[C@@H]3CCCN1CCOC(C)C` (racemic) [trans-7ff, (±)-(4aR,13bS)-10-chloro-4-(2-isopropoxyethyl)-11-methoxy-1,2,3,4,4a,5,6,13b-octahydro-8H-[1,6]naphthyridino[5,6-b]quinazolin-8-one], `COCCN1CCC[C@@H]2c3nc4cc(Cl)c(Cl)cc4c(=O)n3CC[C@H]21` (racemic) [trans-7i, (±)-(4aR,13bS)-10,11-dichloro-4-(2-methoxyethyl)-1,2,3,4,4a,5,6,13b-octahydro-8H-[1,6]naphthyridino[5,6-b]quinazolin-8-one] is lower in EC50: 0.1 to 1 µM for the first, 0.0001 to 0.1 µM for the second. The second is the more potent here.

Compared with `O=C(c1ccccc1)N1CCC[C@@H]2c3nc4cc(Cl)c(Cl)cc4c(=O)n3CC[C@H]21` (racemic) [trans-7h, (±)-(4aR,13bS)-4-benzoyl-10,11-dichloro-1,2,3,4,4a,5,6,13b-octahydro-8H-[1,6]naphthyridino[5,6-b]quinazolin-8-one], `O=c1c2cc(Cl)c(Cl)cc2nc2n1CC[C@@H]1[C@@H]2CCCN1Cc1ccncc1` (racemic) [trans-7k, (±)-(4aR,13bS)-10,11-dichloro-4-(pyridin-4-ylmethyl)-1,2,3,4,4a,5,6,13b-octahydro-8H-[1,6]naphthyridino[5,6-b]quinazolin-8-one] is lower in EC50: > 10 µM for the first, 0.1 to 1 µM for the second.

Compared with `COc1cc2nc3n(c(=O)c2cc1Cl)CC[C@@H]1[C@@H]3CCCN1CC1CCC1` (racemic) [trans-7hh, (±)-(4aR,13bS)-10-chloro-4-(cyclobutylmethyl)-11-methoxy-1,2,3,4,4a,5,6,13b-octahydro-8H-[1,6]naphthyridino[5,6-b]quinazolin-8-one], `COc1cc2nc3n(c(=O)c2cc1C#N)CC[C@@H]1[C@@H]3CCCN1CC1COC1` (racemic) [trans-7kk, (±)-(4aR,13bS)-11-methoxy-4-(oxetan-3-ylmethyl)-8-oxo-2,3,4,4a,5,6,8,13b-octahydro-1H-[1,6]naphthyridino[5,6-b]quinazoline-10-carbonitrile] is higher in EC50: 0.0001 to 0.1 µM for the first, 0.1 to 1 µM for the second. The first is the more potent here.

For `COc1cc2nc3n(c(=O)c2cc1C#N)CC[C@@H]1[C@@H]3CCCN1C` (racemic) [trans-7jj, (±)-(4aR,13bS)-11-methoxy-4-methyl-8-oxo-2,3,4,4a,5,6,8,13b-octahydro-1H-[1,6]naphthyridino[5,6-b]quinazoline-10-carbonitrile], the EC50 was 1 to 10 µM.
